In brackets after ≈: the same amount, converted by molar mass.

A word on the MIC: it is the lowest concentration found to suppress growth. The IC50 is the concentration that gives 50% inhibition.

The first data set deals with Mycobacterium tuberculosis. As to the kind of experiment: Anti-mycobacterial activity against Mycobacterium tuberculosis H37Rv ATCC 27294 assessed as inhibition of microbial growth incubated for 5 days by MABA method. The data set is classed as functional. The note with it: H37Rv ATCC 27294, 120 h.
`Cc1cnc(Cl)c(Cn2cc(C=O)nn2)c1`: the MIC is 13.3 µM.

Consider `O=Cc1cn(Cc2cc(-c3ccccc3)cnc2Cl)nn1`, for which the MIC came to 5.2 µM.

Take `Cc1ccc(-c2cnc(Cl)c(Cn3cc(C=O)nn3)c2)cc1`: the MIC is 40.1 µM. For the molecule `O=Cc1cn(Cc2cc(-c3ccc(F)cc3)cnc2Cl)nn1`, the MIC amounted to 19.8 µM. Regarding `Cc1cnc(N2CCOCC2)c(Cn2cc(C=O)nn2)c1`, the MIC is 21.8 µM.

As to `Cc1cnc(N2CCSCC2)c(Cn2cc(C=O)nn2)c1`, the MIC was determined as 10.3 µM. On to `O=Cc1cn(Cc2cc(-c3ccccc3)cnc2N2CCOCC2)nn1`, for which the MIC was found to be 4.5 µM. As for `O=Cc1cn(Cc2cc(-c3ccccc3)cnc2N2CCSCC2)nn1`, the MIC was found to be 8.6 µM.

For the molecule `Cc1ccc(-c2cnc(N3CCOCC3)c(Cn3cc(C=O)nn3)c2)cc1`, the MIC came out at 4.3 µM. Still for that read-out and setting: the figure for `Cc1ccc(-c2cnc(N3CCSCC3)c(Cn3cc(C=O)nn3)c2)cc1` is 33.1 µM; for `Cc1cnc(Cl)c(Cn2cc(/C=N/NC(=O)c3ccc(F)cc3)nn2)c1` it is 33.6 µM. Still for that read-out and setting: in the case of `O=C(N/N=C/c1cn(Cc2cc(-c3ccccc3)cnc2Cl)nn1)c1ccc(F)cc1` it was 3.6 µM. Consider `Cc1ccc(-c2cnc(Cl)c(Cn3cc(/C=N/NC(=O)c4ccc(F)cc4)nn3)c2)cc1`, for which the MIC is 27.9 µM. On to `O=C(N/N=C/c1cn(Cc2cc(-c3ccc(F)cc3)cnc2Cl)nn1)c1ccc(F)cc1`, for which the MIC came out at 13.8 µM. On the same count and under the same terms, in the case of `Cc1cnc(Cl)c(Cn2cc(/C=N/NC(=O)c3ccc(C(F)(F)F)cc3)nn2)c1` it was 3.7 µM.

For the molecule `O=C(N/N=C/c1cn(Cc2cc(-c3ccccc3)cnc2Cl)nn1)c1ccc(C(F)(F)F)cc1`, the MIC was 3.2 µM.

Consider `Cc1ccc(-c2cnc(Cl)c(Cn3cc(/C=N/NC(=O)c4ccc(C(F)(F)F)cc4)nn3)c2)cc1`, for which the MIC stood at 50.2 µM. With `O=C(N/N=C/c1cn(Cc2cc(-c3ccc(F)cc3)cnc2Cl)nn1)c1ccc(C(F)(F)F)cc1`, the MIC was determined as 12.5 µM. Consider `Cc1cnc(N2CCOCC2)c(Cn2cc(/C=N/NC(=O)c3ccc(F)cc3)nn2)c1`, for which the MIC came out at 59.1 µM. Take `Cc1cnc(N2CCSCC2)c(Cn2cc(/C=N/NC(=O)c3ccc(F)cc3)nn2)c1`: the MIC came out at 28.5 µM. The same measure, in the same setting: the figure for `O=C(N/N=C/c1cn(Cc2cc(-c3ccccc3)cnc2N2CCOCC2)nn1)c1ccc(F)cc1` is 12.9 µM; for `O=C(N/N=C/c1cn(Cc2cc(-c3ccccc3)cnc2N2CCSCC2)nn1)c1ccc(F)cc1` it is 6.2 µM; for `Cc1ccc(-c2cnc(N3CCOCC3)c(Cn3cc(/C=N/NC(=O)c4ccc(F)cc4)nn3)c2)cc1` it is 100 µM. Take `Cc1ccc(-c2cnc(N3CCSCC3)c(Cn3cc(/C=N/NC(=O)c4ccc(F)cc4)nn3)c2)cc1`: the MIC is 97.1 µM. For `Cc1cnc(N2CCOCC2)c(Cn2cc(/C=N/NC(=O)c3ccc(C(F)(F)F)cc3)nn2)c1`, the MIC is 26.4 µM.

Take `Cc1cnc(N2CCSCC2)c(Cn2cc(/C=N/NC(=O)c3ccc(C(F)(F)F)cc3)nn2)c1`: the minimum inhibitory concentration (MIC) is 3.2 µM. In the case of `O=C(N/N=C/c1cn(Cc2cc(-c3ccccc3)cnc2N2CCOCC2)nn1)c1ccc(C(F)(F)F)cc1`, the MIC amounted to 23.3 µM. The same measure, in the same setting: in the case of `O=C(N/N=C/c1cn(Cc2cc(-c3ccccc3)cnc2N2CCSCC2)nn1)c1ccc(C(F)(F)F)cc1` it was 2.8 µM. The same measure, in the same setting: in the case of `Cc1ccc(-c2cnc(N3CCOCC3)c(Cn3cc(/C=N/NC(=O)c4ccc(C(F)(F)F)cc4)nn3)c2)cc1` it was 91.1 µM; in that of `Cc1ccc(-c2cnc(N3CCSCC3)c(Cn3cc(/C=N/NC(=O)c4ccc(C(F)(F)F)cc4)nn3)c2)cc1`, 5.4 µM.

For `O=C(O)c1cn(C2CC2)c2cc(N3CCNCC3)c(F)cc2c1=O` [CIPROFLOXACIN], the MIC came to 12.6 µM. Consider `CC[C@@H](CO)NCCN[C@@H](CC)CO` [ETHAMBUTOL], for which the MIC amounted to 15.3 µM. On the same count and under the same terms, the figure for `NNC(=O)c1ccncc1` [ISONIAZID] is 2.6 µM.

The subject of a further data set is PBMC. As to the kind of experiment: Cytotoxicity against PBMC (unknown origin) assessed as reduction in cell viability after 72 hrs by MTT assay. The data set is classed as cell-based. The note with it: Homo sapiens. In general terms: Formazan colour is commonly taken as a measure of viable cells.
Take `O=C(N/N=C/c1cn(Cc2cc(-c3ccccc3)cnc2Cl)nn1)c1ccc(F)cc1`: the IC50 was 357 µg/mL (≈ 821 µM). Still for that read-out and setting: the figure for `Cc1cnc(Cl)c(Cn2cc(/C=N/NC(=O)c3ccc(C(F)(F)F)cc3)nn2)c1` is 337 µg/mL (≈ 797 µM).

Take `O=C(N/N=C/c1cn(Cc2cc(-c3ccccc3)cnc2Cl)nn1)c1ccc(C(F)(F)F)cc1`: the IC50 stood at 282 µg/mL (≈ 582 µM). Still for that read-out and setting: in the case of `O=C(N/N=C/c1cn(Cc2cc(-c3ccccc3)cnc2N2CCSCC2)nn1)c1ccc(F)cc1` it was above 400 µg/mL.

On to `Cc1cnc(N2CCSCC2)c(Cn2cc(/C=N/NC(=O)c3ccc(C(F)(F)F)cc3)nn2)c1`, for which the IC50 turned out to be 350 µg/mL (≈ 715 µM). Take `O=C(N/N=C/c1cn(Cc2cc(-c3ccccc3)cnc2N2CCSCC2)nn1)c1ccc(C(F)(F)F)cc1`: the IC50 was determined as 188 µg/mL (≈ 341 µM). Still for that read-out and setting: the figure for `Cc1ccc(-c2cnc(N3CCSCC3)c(Cn3cc(/C=N/NC(=O)c4ccc(C(F)(F)F)cc4)nn3)c2)cc1` is above 400 µg/mL.

As for `NNC(=O)c1ccncc1` [ISONIAZID], the IC50 stood at 169 µg/mL (≈ 1230 µM).

For the next data set, the system named is RAW264.7. In words: Cytotoxicity against mouse RAW264.7 cells assessed as reduction in cell viability after 72 hrs by MTT assay. It is filed as cell-based. The note with it: RAW264.7, 72 h.
For `O=C(N/N=C/c1cn(Cc2cc(-c3ccccc3)cnc2Cl)nn1)c1ccc(F)cc1`, the IC50 was 152 µg/mL (≈ 350 µM). The same measure, in the same setting: the figure for `Cc1cnc(Cl)c(Cn2cc(/C=N/NC(=O)c3ccc(C(F)(F)F)cc3)nn2)c1` is 258 µg/mL (≈ 610 µM); for `O=C(N/N=C/c1cn(Cc2cc(-c3ccccc3)cnc2Cl)nn1)c1ccc(C(F)(F)F)cc1` it is 313 µg/mL (≈ 646 µM). Still for that read-out and setting: the figure for `O=C(N/N=C/c1cn(Cc2cc(-c3ccccc3)cnc2N2CCSCC2)nn1)c1ccc(F)cc1` is 188 µg/mL (≈ 375 µM). The same measure, in the same setting: the figure for `Cc1cnc(N2CCSCC2)c(Cn2cc(/C=N/NC(=O)c3ccc(C(F)(F)F)cc3)nn2)c1` is 212 µg/mL (≈ 433 µM); for `O=C(N/N=C/c1cn(Cc2cc(-c3ccccc3)cnc2N2CCSCC2)nn1)c1ccc(C(F)(F)F)cc1` it is 296 µg/mL (≈ 537 µM); for `Cc1ccc(-c2cnc(N3CCSCC3)c(Cn3cc(/C=N/NC(=O)c4ccc(C(F)(F)F)cc4)nn3)c2)cc1` it is 326 µg/mL (≈ 576 µM). Take `NNC(=O)c1ccncc1` [ISONIAZID]: the IC50 is above 400 µg/mL.

System in a further data set: not listed separately
As to the kind of experiment: Selectivity index, ratio of IC50 for PBMC (unknown origin) to MIC for Mycobacterium tuberculosis H37Rv ATCC 27294.
Conditions: not given
For the molecule `O=C(N/N=C/c1cn(Cc2cc(-c3ccccc3)cnc2Cl)nn1)c1ccc(F)cc1`, the “Selectivity Index” value amounted to 228.

Consider `Cc1cnc(Cl)c(Cn2cc(/C=N/NC(=O)c3ccc(C(F)(F)F)cc3)nn2)c1`, for which the “Selectivity Index” value is 216. Same read-out and setting: in the case of `O=C(N/N=C/c1cn(Cc2cc(-c3ccccc3)cnc2Cl)nn1)c1ccc(C(F)(F)F)cc1` it was 180; in that of `O=C(N/N=C/c1cn(Cc2cc(-c3ccccc3)cnc2N2CCSCC2)nn1)c1ccc(F)cc1`, above 128; in that of `Cc1cnc(N2CCSCC2)c(Cn2cc(/C=N/NC(=O)c3ccc(C(F)(F)F)cc3)nn2)c1`, 224. Still for that read-out and setting: the figure for `O=C(N/N=C/c1cn(Cc2cc(-c3ccccc3)cnc2N2CCSCC2)nn1)c1ccc(C(F)(F)F)cc1` is 120; for `Cc1ccc(-c2cnc(N3CCSCC3)c(Cn3cc(/C=N/NC(=O)c4ccc(C(F)(F)F)cc4)nn3)c2)cc1` it is above 128.

System in the next data set: not listed separately
As to the kind of experiment: Selectivity index, ratio of IC50 for mouse RAW264.7 cells to MIC for Mycobacterium tuberculosis H37Rv ATCC 27294. It is filed as toxicity. The note with it: read-out: Selectivity Index.
For the molecule `O=C(N/N=C/c1cn(Cc2cc(-c3ccccc3)cnc2Cl)nn1)c1ccc(F)cc1`, the selectivity ratio was 97. Same read-out and setting: in the case of `Cc1cnc(Cl)c(Cn2cc(/C=N/NC(=O)c3ccc(C(F)(F)F)cc3)nn2)c1` it was 165; in that of `O=C(N/N=C/c1cn(Cc2cc(-c3ccccc3)cnc2Cl)nn1)c1ccc(C(F)(F)F)cc1`, 200; in that of `O=C(N/N=C/c1cn(Cc2cc(-c3ccccc3)cnc2N2CCSCC2)nn1)c1ccc(F)cc1`, 60.

For `Cc1cnc(N2CCSCC2)c(Cn2cc(/C=N/NC(=O)c3ccc(C(F)(F)F)cc3)nn2)c1`, the selectivity ratio was found to be 136. Consider `O=C(N/N=C/c1cn(Cc2cc(-c3ccccc3)cnc2N2CCSCC2)nn1)c1ccc(C(F)(F)F)cc1`, for which the selectivity ratio was found to be 189.

Take `Cc1ccc(-c2cnc(N3CCSCC3)c(Cn3cc(/C=N/NC(=O)c4ccc(C(F)(F)F)cc4)nn3)c2)cc1`: the selectivity ratio worked out at 104.

The values above are taken from ChEMBL document CHEMBL3421527, “Synthesis and anti-mycobacterial activity of 2-chloronicotinaldehydes based novel 1H-1,2,3-triazolylbenzohydrazides” (Bioorg Med Chem Lett, 2015).
